The results in this text go back to patent EP0189142A2, “Arylalkoxyphenyl-allylic alcohols as agents for the treatment of hypersensitive ailments” (USV PHARMACEUTICAL CORPORATION, priority 1985, dated 1986).

For one assay, the target named is T1, Phospholipase A2 (PLA2) (Rattus norvegicus, UniProt P14423).
T1 construct: obtained by aggregation of purified rat platelets; from tissue; host or cells: rat platelets (material obtained on aggregation)
T1 sequence (P14423 22-146): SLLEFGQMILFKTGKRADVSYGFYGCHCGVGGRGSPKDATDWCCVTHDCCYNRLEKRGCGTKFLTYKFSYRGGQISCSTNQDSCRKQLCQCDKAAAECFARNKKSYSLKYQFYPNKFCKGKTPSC
Kind of assay: In vitro assay for inhibitors of Phospholipase A2 (PLA2). The format is biochemical. To be noted: PLA2 from aggregated purified rat platelets; 14C-phosphatidylcholine substrate; pH 7.2, 37°C, 30 minutes; read-out: (PLA2) Phospholipase A2 inhibition (I50). The source says:
(§1) Two assays have been developed to test the ability of the invented compounds on the activity of the phospholipases. In one protocol, a procedure is described for testing the inhibitory effects of these compounds on Phospholipase C (PLC), while the other protocol describes a means for testing the inhibitory effect of these compounds on Phospholipase A2 (P^LA2).
Protocol for In Vitro Assay for Inhibitors of Phospholipase A2 Assayed at oH 7.0 (PLA2)
The PLA2 employed in this screen is obtained by aggregation of purified rat platelets. In the enzyme assay phosphatidylcholine having ^14C-labeled palmitate residues at Rl and R2 is employed as substrate. PLA2 acts by cleaving the R2 fatty acid ester bond yielding free fatty acid and lysophosphatidyl choline as follows: [drawing 22]
Following completion of the reaction, the assay medium is acidified and extracted with hexane, which takes up unreacted substrate and free fatty acid product. The hexane extract is passed over a short silica gel column which retains 99% of the phosphatidyl choline. The ^14C-labeled palmitic acid is not retained (90% recovery in eluate) and is collected directly in scintillation counting vials. The released palmitic acid is conveniently quantitated by liquid scintillation spectrometry.
The compounds were tested at 100 uM in a buffer containing 0.3 mM unlabeled phosphatidylcholine (PC), 20-30,000 cpm of ^14C [PC], 100 mM NaCl, 1 mM CaCl2 and 50 mM Tris-HCL adjusted to pH 7.2 with 1 N NaOH. […] The reaction was initiated by addition of the enzyme and it was terminated 30 minutes later by the addition of 100 ml of 1 N HCL.
Following acidification, the complex was extracted with 2 ml of 2-propanol and 2 ml of hexane, vortexed, and allowed to stand until the phases separated. Free fatty acids (FFA) and some unreacted substrate were taken up in the isopropanol-saturated hexane. The hexane phase of the extraction mixture was transferred to a short silica gel column which retained unreacted PC but not the FFA. The column effluent was collected directly in scintillation vials. The columns were washed once with an additional 2 ml of hexane. The radiolabeled FFA were ^quantitated by liquid scintillation spectrometry.

The target in a further assay is T2, Rat PMN 5-lipoxygenase (Rattus norvegicus, UniProt P12527).
T2 construct: endogenous in cells; host or cells: rat neutrophils (PMN)
T2 sequence (P12527 1-673): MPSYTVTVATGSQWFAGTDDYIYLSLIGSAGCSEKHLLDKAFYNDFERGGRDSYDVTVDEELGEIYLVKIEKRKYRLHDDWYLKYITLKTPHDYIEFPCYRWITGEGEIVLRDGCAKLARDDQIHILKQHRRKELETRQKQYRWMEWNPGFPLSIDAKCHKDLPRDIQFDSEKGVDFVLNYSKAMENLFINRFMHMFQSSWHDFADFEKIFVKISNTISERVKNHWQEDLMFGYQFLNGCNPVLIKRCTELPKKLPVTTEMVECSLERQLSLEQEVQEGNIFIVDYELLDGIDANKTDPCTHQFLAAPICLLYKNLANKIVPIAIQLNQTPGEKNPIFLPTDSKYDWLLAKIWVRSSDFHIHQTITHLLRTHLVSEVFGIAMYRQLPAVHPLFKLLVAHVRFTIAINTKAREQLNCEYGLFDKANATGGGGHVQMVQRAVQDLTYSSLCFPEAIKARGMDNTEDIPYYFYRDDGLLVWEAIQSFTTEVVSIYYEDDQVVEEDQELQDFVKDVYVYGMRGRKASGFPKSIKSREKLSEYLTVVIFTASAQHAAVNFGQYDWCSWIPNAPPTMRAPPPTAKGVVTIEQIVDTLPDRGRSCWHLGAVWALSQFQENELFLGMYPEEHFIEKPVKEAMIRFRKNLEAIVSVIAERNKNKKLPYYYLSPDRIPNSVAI
Kind of assay: Protocol for detecting inhibitors of the lipoxygenase pathway (5-HETE formation in rat neutrophils). The format is cell-based. To be noted: suspension of rat neutrophils, 3 minutes at 30°C with [14C]-arachidonic acid and Calcium Ionophore A23187; net 5-HETE produced; read-out: Rat PMN 5-lipoxygenase inhibition (I50). How it is done:
The following protocol describes an assay to detect inhibitors of the lipoxygenase pathway. Such inhibitors are believed to be capable of modulating the biosynthesis of the leukotrienes, a property believed to be useful in treating asthma and inflammatory disease states.
Protocol for Detecting Inhibitors of the Lipoxygenase Pathway
A suspension of rat neutrophils in buffer is incubated for 3 minutes at 30°C with [^14]-arachidonic acid (AA) and Calcium Ionophore A23'187. Citric acid (2M) is used to quench the reaction. Following the addition of a trace amount of (^3H)-5-HETE together with an excess of unlabeled 5-HETE to each tube, the mixture is extracted with chloroform/methanol. The organic layer is washed with dilute acid and an aliquot is transferred to glass tubes and dried. The residue is dissolved in a small volume of chloroform and an aliquot is spotted on silica gel TLC sheets, which are developed with an ethyl acetate/isooctane/water/acetic acid solvent system. The 5-HETE spots are visualized with iodine, cut out and placed in scintillation vials for counting. After adjusting for the extraction efficiency, the amount (pmole) of [^14C]-5-HETE in each of the tubes is quantitated by substracting the net pmoles of 5-HETE in the tubes containing buffer alone (blank) from the pmoles of 5-HETE in the tubes containing […]. The ability of the test compounds to modulate the activity of this enzyme is determined by a decrease or increase in the net amount of 5-HETE produced.

In the next assay the target is Phospholipase C (PLC). Kind of assay: In vitro assay for inhibitors of Phospholipase C (PLC). The format is biochemical. The note with it: PLC from aggregated purified rat platelets (CaCl2, ADP); 3H-phosphatidylinositol substrate; pH 9.0, 37°C, 10 minutes; read-out: (PLC) Phospholipase C inhibition (I50).
Description: as §1
Protocol for In Vitro Assay for Inhibitors of
The PLC employed in this screen is obtained by aggregation of purified rat platelets in the presence of CaCl2 and ADP. In the enzyme assay, phosphatidylinositol having ^3H-labeled arachidonate residues at R2 is employed as substrate. PLC acts by cleaving the phosphate ester bond yielding diglyceride as follows: [drawing 21] ^3H-Phosphatidylinosit-tol ^3H-diglyceride Inositol (cont.)
Following completion of the reaction, the assay medium is acidified and extracted with hexane which takes up unreacted substrate and diglvceride. The hexane extract is passed over a short silica gel column which retains 99% of the phosphatidylinositol. […] The diglyceride is conveniently quantitated by liquid scintillation spectrometry. […]
Following acidification, the samples were extracted with 2 ml of isopropyl alcohol and 2 ml of hexane, vortexed and allowed to stand until the phrases separate. […] The radiolabeled diglycerides were quantitated by liquid scintillation spectrometry.

With `CC(O)C=Cc1ccc(OCc2ccccc2)cc1` [Compound 21, 4-(D-BenzyloxyDhenyl)-3-buten-2-ol], the IC50 on Phospholipase A2 (PLA2) came out at 120 µM; on Rat PMN 5-lipoxygenase it was 1.5 µM.

Take `CC(O)C=Cc1ccc(OCc2ccccc2)cc1OCc1ccccc1` (stereo not drawn) [Compound 22]: the IC50 was determined as 90 µM on Phospholipase A2 (PLA2) and 1 µM at Rat PMN 5-lipoxygenase. Consider `CCCCCC(O)C=Cc1ccc(OCc2ccccc2)cc1OCc1ccccc1` (stereo not drawn) [Compound 23], for which the IC50 at Rat PMN 5-lipoxygenase came out at 10 µM. Regarding `CC(C)(C)CC(O)C=Cc1ccc(OCc2ccccc2)cc1OCc1ccccc1` (stereo not drawn) [Compound 24], the IC50 on Phospholipase A2 (PLA2) is 100 µM; on Rat PMN 5-lipoxygenase, 0.3 µM. For `CC(C)(C)C(O)C=Cc1ccc(OCc2ccccc2)cc1OCc1ccccc1` (stereo not drawn) [Compound 25], in that order: 80 µM and 1.1 µM. On to `CC(O)C=Cc1ccc(OCc2ccccc2)c(OCc2ccccc2)c1` (stereo not drawn) [Compound 28], for which the IC50 at Rat PMN 5-lipoxygenase is 2 µM. Same read-out and setting: the value for `CC(C)(C)C(O)C=Cc1ccc(OCc2ccccc2)c(OCc2ccccc2)c1` (stereo not drawn) [Compound 29] was 2.3 µM; that for `CCCCCC(O)C=CC=Cc1ccc(OCc2ccccc2)cc1` (stereo not drawn) [Compound 32] was 7 µM; that for `CC(C)(C)C(O)C=CC=Cc1ccc(OCc2ccccc2)cc1` (stereo not drawn) [Compound 34] was 4.5 µM.

Regarding `CN(C)CCC(O)C=Cc1ccc(OCc2ccccc2)cc1` (stereo not drawn) [Compound 37], at Phospholipase C (PLC), the IC50 was 24 µM. Take `CC(O)C=Cc1ccc(OC(c2ccccc2)c2ccccc2)cc1` (stereo not drawn) [Compound 39]: the results for the IC50 at Phospholipase A2 (PLA2) and on Rat PMN 5-lipoxygenase were 31 µM and 3.5 µM, respectively. For the molecule `CC1CCCC(=Cc2ccc(OCc3ccccc3)cc2)C1O` (stereo not drawn) [Compound 40], the IC50 on Phospholipase A2 (PLA2) amounted to 170 µM.

As to `OCC=Cc1ccc(OCc2ccccc2)cc1OCc1ccccc1` [Compound 42], the IC50 on Rat PMN 5-lipoxygenase is 1.4 µM.
